Test results as given in patent publication US20020137725A1, “Use of tagatose in promoting cardiovascular health” (priority 2001, published 2002).

Columns and labels:
[1] = Pilot study of long term effects of D-tagatose in humans with type-2 diabetes (University of Maryland); type: in vivo; settings: long term treatment; each of the subjects, both the patients (type-2 diabetes) and the controls
Experimental: U.S. Pat. No. 5,447,917 discloses and claims a method for treating diabetes by administering to a mammal an amount of D-tagatose effective to inhibit the rise in blood sugar associated with the consumption of sugar. A pilot study was conducted at the University of Maryland to investigate the long term effects of D-tagatose in humans with type-2 diabetes.

[2] = Example 1: tagatose given to a human patient with lowered HDL level; type: in vivo; settings: 15 grams with each of three meals per day, after six months
From the text: A human patient is diagnosed as having a lowered HDL level than that found in a previous visit. The physician is concerned that this may forecast atherosclerosis, possibly leading to a heart attack, or to a stroke. The physician prescribes that the patient take 15 grams of tagatose with each of three meals per day. […] The physician is satisfied with the improvement and prescribes continued […] doses of tagatose per meal as a means of maintaining and improving the patient's cardiovascular health.

Row | SMILES | HDL-cholesterol levels [1] | patient's HDL level versus immediately before treatment [2]
1 | O=C(CO)[C@@H](O)[C@@H](O)[C@H](O)CO [D-tagatose] | increase in HDL-cholesterol levels | –
2 | O=C(CO)[C@@H](O)[C@@H](O)[C@H](O)CO [tagatose] | – | significantly higher
